Assay results: patent US20260364101A1, “OLEUROPEIN IN THE MANAGEMENT OF CANCER” (FUNDACIÓN MIGUEL SERVET, priority 2023, published 2026)
Entries after “also recorded” stand apart in the source; their conditions may differ.

Tests used:
TAMCs = assay: quantitative proteomics and Ingenuity Pathway Analysis of TAMCs (FIG. 2); type: cell-based, mouse
Protocol: Immunosuppressive myeloid cell subsets resembling tumor-infiltrating subsets (g-MDSCs, m-MDSCs and TAMs) were differentiated from mouse bone marrow following published procedures using conditioning medium produced by LLC tumor cells stably expressing GMCSF and MCSF cells. g- and m-MDSCs were purified using the myeloid-derived suppressor cell isolation kit (Miltenyi Biotec, Bergisch, Germany) according to manufacturer's recommendations. MDSCs and TAMs were seeded with 500 nM BML-275 or 50 μM oleuropein and incubated for seven days.
A unique proteomic experiment was carried out with five biological replicates per sample (m-MDSC, g-MDSC and TAM). Cells were homogenized in a lysis buffer containing 7 M urea, 2 M thiourea 50 mM DTT. The homogenates were spun down at 14000 g for 1 h at 15 °C. Before proteomic analysis, protein extracts were diluted with Laemmli sample buffer in 100 μL and loaded into a 0.75 mm thick polyacrylamide gel with a 4% stacking gel casted over a 12.5% resolving gel. The run was stopped as soon as the front entered 3 mm into the resolving gel so that the whole proteome became concentrated in the stacking/resolving gel interface. Bands were stained with Coomassie Brilliant Blue, excised from the gel and protein enzymatic cleavage was carried out with trypsin (Promega; 1:20, w/w) at 37 °C for 16 h as previously described. Purification and concentration of peptides was performed using C18 Zip Tip Solid Phase Extraction (Millipore).
Peptide mixtures were separated by reverse phase chromatography using an UltiMate 3000 UHLPC System (Thermo Scientific) fitted with an Aurora packed emitter column (lonopticks, 25 cm×75 μm ID, 1.6 μm C18). Samples were first loaded for desalting and concentration into an Acclaim PepMap column (ThermoFisher, 0.5 cm×300 μm ID, 5 μm C18) packed with the same chemistry as the separating column. Mobile phases were 100% water 0.1% formic acid (FA) (buffer A) and 100% Acetonitrile 0.1% FA (buffer B). Column gradient was developed in a 120 min two step gradient from 5% B to 20% B in 90 min and 20% B to 32% B in 30 min. Column was equilibrated in 95% B for 10 min and 5% B for 20 min. During the whole process, the precolumn was in line with the column and the flow maintained all along the gradient at 300 nl/min. The column temperature was maintained at 40 °C using an integrated column oven (PRSO-V2, Sonation, Biberach, Germany) and interfaced online with the Orbitrap Exploris 480 MS. Spray voltage were set to 2 kV, funnel RF level at 40, and heated capillary temperature at 300 °C. For DDA experiments full MS resolutions were set to […] at m/z 200 and full MS AGC target was set to Standard with an IT mode Auto. Mass range was set to 375-1500. AGC target value for fragment spectra was set to Standard with a resolution of 15,000 and 3 seconds for cycle time. The intensity threshold was kept at 8E3. Isolation width was set at 1.4 m/z. Normalized collision energy was set at 30%. All data were acquired in centroid mode using positive polarity and peptide match was set to off, and isotope exclusion was on.
Raw files were processed with MaxQuant v1.6.17.0 using the integrated Andromeda Search engine. All data were searched against a target/decoy version of the mouse Uniprot Reference Proteome with March 2021 release. First search peptide tolerance was set to 20 ppm, main search peptide tolerance was set to 4.5 ppm. Fragment mass tolerance was set to 20 ppm. Trypsin was specified as enzyme, […] carbamidomethylation of cysteine was specified as fixed modification and peptide N-terminal acetylation, oxidation of methionine, deamidation of asparagine and glutamine and pyro-glutamate formation from glutamine and glutamate were considered variable modifications with a total of two variable modifications per peptide. […]

LLC cells = assay: LLC lung cancer mouse tumor model resistant to immunotherapy; type: in vivo, C57BL/6 mice; conditions: for tumor growth: 300 μg oleuropein i.p. every other day for eight days
Protocol: C57BL/6 female mice were subcutaneously (s.c) injected with […] LLC cells or 0.5×10^6 MC38 cells per animal. When tumor growth reached an average diameter of 3.5 mm (day 0), mice received 100 μg of anti-PD-1 mAb (RPMI-14, BioXCell) intraperitoneally (i.p) at days 0, 5, and 13. Control mice received the same volume of saline. For oleuropein, mice received 300 μg oleuropein at days-1, 2, 4, 6, and 8. As negative control, the same volume of saline was injected.
The efficacy of all treatments was evaluated every two days by measuring two perpendicular tumor measurements. The size was calculated using the formula: Size=Length x Width. Mice were humanely sacrificed when tumor size reached ~150 mm^2, or when tumor ulceration or evident discomfort were observed. For rechallenge experiments in the MC38 model, mice that rejected tumors were injected s.c. with 5×10^5 MC38 cells in the left flank three months after the first tumor inoculation. Naïve mice were included as controls and development of tumors was evaluated for two months.
Tumor measurements of in vivo experiments are represented as tumor diameter (mm^2) and plotted either as individual data points for one individual mouse or as mean±SD as indicated in the figure legends. Statistical analysis was performed using one way ANOVA test followed by a Sidak's multiple comparison test at 0.05 level of significance. For in vivo experiments, to compare multiple experimental groups, one-way ANOVA test and Tukey's multiple comparison test were used. Two-tailed Student's t test was applied to compare two experimental groups. Survival of tumor-bearing mice is represented by Kaplan-Meier plots and analyzed by log-rank test. The p values <0.05 were considered statistically significant.
To test antitumor capacities in vivo, LLC cells were implanted subcutaneously into groups of mice and tumors were allowed to grow to an average diameter of approximately […]. This model was chosen because LCC cells are poorly immunogenic and notoriously refractory to PD-L1/PD-1 blockade. Oleuropein was then administered intraperitoneally every other day for eight days.
To address whether oleuropein could be combined with anti-PD1 immunotherapy to treat LCC-derived tumors, anti-PD1 mAb was systemically administered in combination with intraperitoneal injection of oleuropein. As controls, groups of mice treated with each of the agents singly and saline-treated groups were included.

MDSC subsets = assay: abundance of MDSC subsets in vivo; conditions: LXR agonist
[1] = IPA, TAMCs, listed as Oleuropein
[2] = LLC s.c., oleuropein 300 μg i.p. alone or with anti-PD-1 mAb 100 μg i.p.

C/C=C1/[C@H](O[C@@H]2O[C@H](CO)[C@@H](O)[C@H](O)[C@H]2O)OC=C(C(=O)OC)[C@H]1CC(=O)OCCc1ccc(O)c(O)c1 [oleuropein]
CD40 (TAMCs; IPA, TAMCs): down-regulated
Fatty acid β-oxidation I signalling (TAMCs; IPA, TAMCs): up-regulated; also recorded: Regulated expression
IL-9 signalling (TAMCs; IPA, TAMCs): down-regulated
LXR/RXR signalling (TAMCs; IPA, TAMCs): up-regulated; also recorded: Regulated expression
RAN signalling (TAMCs; IPA, TAMCs): down-regulated
TREM1 (TAMCs; IPA, TAMCs): inhibition; also recorded: inhibited
cyclic adenosine monophosphate (cAMP) pathway (TAMCs; IPA, TAMCs): inhibition; also recorded: inhibited
estrogen signalling (TAMCs; IPA, TAMCs): downregulated
global reprogramming of TAMCs / immunosuppressive pathways (TAMCs; IPA, TAMCs): major reprogramming of intracellular pathways; also recorded: reprograms the immunosuppressive properties of TAMCs; also recorded: major global reprogramming of TAMCs by deactivating immunosuppressive pathways
insulin signalling (TAMCs; IPA, TAMCs): downregulated
pathways regulating lipid metabolism (Sirtuin, polyamines, PPAR-a/RXR-a) (TAMCs; IPA, TAMCs): altered
TREM1 (TAMCs; [1]): reduced
cyclic adenosine monophosphate (cAMP) pathway (TAMCs; [1]): down-regulated
proteomic profile (TAMCs; oleuropein-treated vs untreated, FDR<1%): distinct proteomic profiles
tumor growth (LLC cells; LLC s.c.): significantly delayed tumor growth
tumor growth (LLC cells; LLC s.c., listed as Oleuropein): delayed tumor growth
increased survival, time (LLC cells; [2]): up to 20 days
survival (LLC cells; [2]): significant increase in long-term survival
survival (LLC cells; LLC s.c., oleuropein 300 μg i.p. alone or with anti-PD-1 mAb 100 μg i.p., listed as Oleuropein): significantly increased survival
mice responding to the treatment (LLC cells; LLC s.c., oleuropein i.p.): most of the mice responding to the treatment
improvement of aPD-1 therapies (LLC cells; tumor model intrinsically resistant to PD-1 blockade): improved aPD-1 therapies in a tumor model intrinsically resistant to PD-1 blockade; also recorded: improved aPD-1 and anti-LAG-3 therapies
abundance of MDSC subsets and of immunosuppressive TME (MDSC subsets): reduced the abundance of MDSC subsets in vivo as well as of immunosuppressive TME
